Laboratory results: US10934310B2, “Inhibitors of Bruton's tyrosine kinase and method of their use” (JANSSEN PHARMACEUTICA NV, priority 2015, dated 2021)

Biological target: unphosphorylated-BTK kinase domain (UP-BTK), GST-tagged human BTK (389-659aa) (Homo sapiens (Human), UniProt Q06187)
Experiment: BTK Kinase Lanthascreen Binding Assay
Settings: Lanthascreen binding, 60 minutes incubation; pIC50 = negative log of the IC50 in molar
Method: BTK Kinase Lanthascreen Binding Assay:
A BTK kinase lanthascreen binding assay monitors compound binding to unphosphorylated-BTK kinase domain (UP-BTK), by competing with a fluorescent labeled tracer. […] Data were analyzed using Xlfit™ version 5.3 from ID Business Solutions (Guildford), Microsoft Excel add-in. pIC50 refers to the negative log of the IC50 in molar.

Sequence of unphosphorylated-BTK kinase domain (UP-BTK), GST-tagged human BTK (389-659aa) (Q06187 389-659): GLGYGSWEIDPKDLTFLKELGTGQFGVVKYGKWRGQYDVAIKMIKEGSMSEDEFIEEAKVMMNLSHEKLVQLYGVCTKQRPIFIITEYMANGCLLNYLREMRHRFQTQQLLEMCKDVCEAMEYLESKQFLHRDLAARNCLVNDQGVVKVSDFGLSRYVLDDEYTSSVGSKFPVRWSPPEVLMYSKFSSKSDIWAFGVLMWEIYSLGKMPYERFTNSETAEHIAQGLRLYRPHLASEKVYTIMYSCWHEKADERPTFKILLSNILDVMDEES

Row | SMILES | BTK_I_binding pIC50
1 | C=CC(=O)N[C@H]1CCC[C@H]1NC(=O)c1sc2nccc3c2c1NC(=O)N3c1ccc(Oc2cncnc2)cc1C [Example 482, N-((1R,2S)-2-Acrylamidocyclopentyl)-5-(2-methyl-4-(pyrimidin-5-yloxy)phenyl)-4-oxo-4,5-dihydro-3H-1-thia-3,5,8-triazaacenaphthylene-2-carboxamide] | 7.79
2 | C=CC(=O)N[C@H]1CCC[C@H]1NC(=O)c1sc2nccc3c2c1NC(=O)N3c1cnc(Oc2cccc(C)n2)cc1C [Example 483, N-((1R,2S)-2-Acrylamidocyclopentyl)-5-(4-methyl-6-((6-methylpyridin-2-yl)oxy)pyridin-3-yl)-4-oxo-4,5-dihydro-3H-1-thia-3,5,8-triazaacenaphthylene-2-carboxamide] | 7.49
3 | C=CC(=O)N[C@H]1CCC[C@H]1NC(=O)c1sc2nccc3c2c1NC(=O)N3c1ccc(Oc2ncccn2)cn1 [Example 484, N-((1R,2S)-2-Acrylamidocyclopentyl)-4-oxo-5-(5-(pyrimidin-2-yloxy)pyridin-2-yl)-4,5-dihydro-3H-1-thia-3,5,8-triazaacenaphthylene-2-carboxamide] | 6.93
4 | C=CC(=O)N[C@H]1CCC[C@H]1NC(=O)c1sc2nccc3c2c1NC(=O)N3c1ccc(Oc2cncnc2)cn1 [Example 485, N-((1R,2S)-2-Acrylamidocyclopentyl)-4-oxo-5-(5-(pyrimidin-5-yloxy)pyridin-2-yl)-4,5-dihydro-3H-1-thia-3,5,8-triazaacenaphthylene-2-carboxamide] | 6.59
5 | C=CC(=O)N[C@H]1CCC[C@H]1NC(=O)c1sc2nccc3c2c1NC(=O)N3c1cnc(Oc2cncnc2)cc1C [Example 486, N-((1R,2S)-2-Acrylamidocyclopentyl)-5-(4-methyl-6-(pyrimidin-5-yloxy)pyridin-3-yl)-4-oxo-4,5-dihydro-3H-1-thia-3,5,8-triazaacenaphthylene-2-carboxamide] | 7.39
6 | C=CC(=O)N[C@H]1CCC[C@H]1NC(=O)c1sc2nccc3c2c1NC(=O)N3c1cnc(Oc2ccc(C)nc2)cc1C [Example 487, N-((1R,2S)-2-Acrylamidocyclopentyl)-5-(4-methyl-6-((6-methylpyridin-3-yl)oxy)pyridin-3-yl)-4-oxo-4,5-dihydro-3H-1-thia-3,5,8-triazaacenaphthylene-2-carboxamide] | 6.87
7 | C=CC(=O)N[C@H]1CCC[C@H]1NC(=O)c1sc2nccc3c2c1NC(=O)N3c1cnc(Oc2ccccn2)cc1C [Example 488, N-((1R,2S)-2-Acrylamidocyclopentyl)-5-(4-methyl-6-(pyridin-2-yloxy)pyridin-3-yl)-4-oxo-4,5-dihydro-3H-1-thia-3,5,8-triazaacenaphthylene-2-carboxamide] | 7.62
8 | C=CC(=O)N[C@H]1CCC[C@H]1NC(=O)c1sc2nccc3c2c1NC(=O)N3c1cnc(Oc2cccnc2C)cc1C [Example 489, N-((1R,2S)-2-Acrylamidocyclopentyl)-5-(4-methyl-6-((2-methylpyridin-3-yl)oxy)pyridin-3-yl)-4-oxo-4,5-dihydro-3H-1-thia-3,5,8-triazaacenaphthylene-2-carboxamide] | 7.03
9 | C=CC(=O)N[C@H]1CCC[C@H]1NC(=O)c1sc2nccc3c2c1NC(=O)N3c1cnc(Oc2cccnc2)cc1C [Example 490, N-((1R,2S)-2-Acrylamidocyclopentyl)-5-(4-methyl-6-(pyridin-3-yloxy)pyridin-3-yl)-4-oxo-4,5-dihydro-3H-1-thia-3,5,8-triazaacenaphthylene-2-carboxamide] | 7.40
10 | C=CC(=O)N[C@H]1CCC[C@H]1NC(=O)c1sc2nccc3c2c1NC(=O)N3c1ccc(Oc2cccnc2)cn1 [Example 491, N-((1R,2S)-2-Acrylamidocyclopentyl)-4-oxo-5-(5-(pyridin-3-yloxy)pyridin-2-yl)-4,5-dihydro-3H-1-thia-3,5,8-triazaacenaphthylene-2-carboxamide] | 7.43
11 | C=CC(=O)N[C@H]1CCC[C@H]1NC(=O)c1sc2nccc3c2c1NC(=O)N3c1ccc(Oc2cncnc2)nc1C [Example 492, N-((1R,2S)-2-Acrylamidocyclopentyl)-5-(2-methyl-6-(pyrimidin-5-yloxy)pyridin-3-yl)-4-oxo-4,5-dihydro-3H-1-thia-3,5,8-triazaacenaphthylene-2-carboxamide] | 6.66
12 | C=CC(=O)N[C@H]1CCC[C@H]1NC(=O)c1sc2nccc3c2c1NC(=O)N3c1ccc(Oc2cccnc2C)cn1 [Example 493, N-((1R,2S)-2-Acrylamidocyclopentyl)-5-(5-((2-methylpyridin-3-yl)oxy)pyridin-2-yl)-4-oxo-4,5-dihydro-3H-1-thia-3,5,8-triazaacenaphthylene-2-carboxamide] | 7.32
13 | C=CC(=O)N[C@H]1CCC[C@H]1NC(=O)c1sc2nccc3c2c1NC(=O)N3c1ccc(Oc2cccnc2)nc1C [Example 494, N-((1R,2S)-2-Acrylamidocyclopentyl)-5-(2-methyl-6-(pyridin-3-yloxy)pyridin-3-yl)-4-oxo-4,5-dihydro-3H-1-thia-3,5,8-triazaacenaphthylene-2-carboxamide] | 7.37
14 | C=CC(=O)N[C@H]1CCC[C@H]1NC(=O)c1sc2nccc3c2c1NC(=O)N3c1ccc(Oc2ccc(C)nc2)nc1C [Example 495, N-((1R,2S)-2-Acrylamidocyclopentyl)-5-(2-methyl-6-((6-methylpyridin-3-yl)oxy)pyridin-3-yl)-4-oxo-4,5-dihydro-3H-1-thia-3,5,8-triazaacenaphthylene-2-carboxamide] | 6.63
15 | C=CC(=O)N[C@H]1CCC[C@H]1NC(=O)c1sc2nccc3c2c1NC(=O)N3c1ccc(Oc2cncnc2)cc1 [Example 508, N-((1R,2S)-2-acrylamidocyclopentyl)-4-oxo-5-(4-(pyrimidin-5-yloxy)phenyl)-4,5-dihydro-3H-1-thia-3,5,8-triazaacenaphthylene-2-carboxamide] | 7.48
